What was measured:
[1] = molecular target: Porcine pancreatic elastase (PPE) (Sus scrofa, UniProt P00772); assay: Spectrophotometric assay of PPE inactivation (in vitro); format: biochemical; conditions: two tenths umoles
[2] = system: Elastase-induced Emphysema in the Mouse; assay: Protection against elastase-induced emphysema in the mouse, lung histology; format: in vivo
Text: (§1) Animal models of emphysema include intratracheal administration of an elastolytic protease (PPE, HLE or papain) to cause a slowly progressive, destructive lesion in the lung. These proteases induce a lesion that is evident in the first few hours.
(§2) The method used for in vivo evaluation involved injection of a test solution into the trachea, or directly into one bronchus. In general, the method of Hayes et al J. Pathol, 117, 1-14 (1975) was used. A fine teflon tubing was connected to a pipette and inserted into the trachea after the animals were lightly anesthetized by IP injection. The contents of the pipette were then ejected. […] It was further determined that instillation of 40 ug of PPE in the same volume causes an unambigous emphysematous lesion which is restricted to the instilled lobe. After 7 to 10 days to allow inflamation to subside, the animals were sacrificed followed by exsanguination via the descending aorta. PPE was used rather than HLE to produce the lesion because emphysema developes over a much shorter period of time. Emphysema then was induced under acute condition so that the effects of the compounds tested could be investigated under the time constraints of a laboratory procedure. PPE with an animal model has been used in research in the past to study other, unrelated, inhibitors. (Bergeson, S. H. et al., European Patent No. 0189305 (1986).
In view of the fact that two tenths umoles of inhibitor is 100 times of the amount of the inhibitor necessary to inhibit the 40 ug of elastase in vitro, dosages were kept in the range of 1 to 10 umoles of inhibitor.
*Elastase: 20 ul containing 40 ug pancreatic elastase
As noted above, the method of in vivo testing is a modification of that of Hayes et al. However, the test solutions are inserted past the vocal chords into one bronchus by resistance. It was established initially that 20 ul of a solution of PPE (2 milligrams per milliter in saline) would create a reliable and unambigous emphysematous lesion. It should also be noted that the animals were scored for the presence of absence of such a lesion in any lobe without regard to the severity of the lesion.

ICR mice = assay: Tolerance of mice to IP or IT injection of inhibitor; format: in vivo, mouse; conditions: all treatments of Table VIII
Text: as §1
as §2, with “PPE with an animal model has been used in research in the past to study other, unrelated, inhibitors. (Bergeson, S. H. et al., European Patent No. 0189305 (1986).” left out
Initially, the tolerance of 30-40 gram male ICR mice to intraperitoneal (IP) or intratracheal (IT) injection of inhibitor (Compound 5, Table I) was evaluated.

[3] = molecular target: T1, Human leukocyte elastase (HLE) (Homo sapiens, UniProt P08246); assay: Spectrophotometric assay of HLE inactivation (in vitro); format: biochemical
T1 construct: purchased Elastin Products, St. Louis, Mo
T1 sequence (P08246 30-267): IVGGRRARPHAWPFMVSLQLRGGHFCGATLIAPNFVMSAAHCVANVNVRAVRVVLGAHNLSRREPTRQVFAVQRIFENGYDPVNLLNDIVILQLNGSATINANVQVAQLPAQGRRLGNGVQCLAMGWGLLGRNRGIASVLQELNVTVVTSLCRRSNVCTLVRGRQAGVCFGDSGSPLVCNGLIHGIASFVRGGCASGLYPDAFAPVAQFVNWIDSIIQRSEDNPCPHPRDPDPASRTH
Protocol: The appropriate amount of inhibitor in acetonitrile was mixed with PPE in phosphate buffer solution and placed in a constant temperature bath. Aliquots were withdrawn at different time intervals and transferred to a cuvette containing 100 uL of substrate, 140 uL of acetonitrile, and 2 mL of phosphate buffer, pH 6.5. After incubating for 30 seconds, the absorbance change was monitored for two minutes at 347.5 nm. […] Controlled reactions for 100% PPE activity were run in the presence of acetonitrile. A similar procedure was followed for HLE.
The reaction of an irreversible inhibitor with PPE and HLE may be illustrated by the scheme shown below: [drawing 5] where EI is the noncovalently bound enzyme-inactivator complex and E-I is the final product with the inhibitor covalently bound to the enzyme. The kinetics data were analyzed according to known procedures. The apparent pseudo-first-order inactivation rate constants were determined from the slopes of semilogarithmic plots of enzymatic activity remaining versus time using the following equation: [formula] where Et /EO is the amount of active enzyme remaining after time "t".
The assay procedure used was the procedure identified relative to the tests above in Table I.
(kobsd) were determined by plotting in [E]t /[E]o vs time.

[4] = system: PPE-induced emphysema in ICR mice; assay: Simultaneous intratracheal instillation of PPE with inhibitor, emphysema induction; format: in vivo, mouse; conditions: for Emphysema: 10 days
Text: as §1, §2
Animals were also used to evaluate the effect of simultaneous intratracheal installation of PPE with the above inhibitor compound. The ICR mice in this experiment were used to evaluate the effect of the inhibitor in preventing emphysema induction. Table IX below illustrates the results of these tests:
All animals were sacrificed ten days after instillation.

thromboxane synthetease = conditions: cited from earlier work
[5] = 1 umole, simultaneous administration, n=4
[6] = 5 umoles, 30 min, then elastase, n=3
[7] = 10 umoles, 1 hr, then elastase, n=7
[8] = 10 umoles, 2 hr, then elastase, n=6
[9] = 10 umoles, 3 hr, then elastase, n=2

Chain of Porcine pancreatic elastase (PPE) (P00772 27-266): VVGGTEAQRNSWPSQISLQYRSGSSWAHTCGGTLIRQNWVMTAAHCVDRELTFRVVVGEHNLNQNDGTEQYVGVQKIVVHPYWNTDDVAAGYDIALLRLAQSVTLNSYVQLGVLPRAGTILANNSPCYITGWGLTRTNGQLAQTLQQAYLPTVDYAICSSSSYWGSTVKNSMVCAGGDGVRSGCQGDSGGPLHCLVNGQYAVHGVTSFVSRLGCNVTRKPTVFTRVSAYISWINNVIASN

SMILES: CCC[C@H](NC(=O)n1ccnc1)C(=O)OC [Compound 5, Table I, L-N-(Imidazol-1-ylcarbonyl)norvaline Methyl Ester]
- 0.2 umoles inhibitor relative to amount necessary to inhibit 40 ug elastase in vitro [1]: 100 times
- Mouse Lung Histology, Emphysematous [2, 5]: 0
- Mouse Lung Histology, Normal [2, 5]: 4
- Mouse Lung Histology, Emphysematous [2, 6]: 0
- Mouse Lung Histology, Normal [2, 6]: 3
- Mouse Lung Histology, Emphysematous [2, 7]: 5
- Mouse Lung Histology, Normal [2, 7]: 2
- Mouse Lung Histology, Emphysematous [2, 8]: 6
- Mouse Lung Histology, Normal [2, 8]: 0
- Mouse Lung Histology, Emphysematous [2, 9]: 2
- Mouse Lung Histology, Normal [2, 9]: 0
- Mouse Lung Histology, Emphysematous ([2]; 10 umoles, no elastase, n=7): 0
- Mouse Lung Histology, Normal ([2]; 10 umoles, no elastase, n=7): 7
- tolerance of inhibitor doses ([2]; all mice, all doses): all mice treated tolerated all doses
- effect on PPE in the animal model (in words) ([2]; mouse, in vivo): block the effects of PPE
- toxic side effects ([2]; mouse, in vivo): devoid of any toxic side effects
- Survival (in words) (ICR mice): all animals survived
- abnormal pulmonary pathology (ICR mice): no animals showed abnormal pulmonary pathology
- effectiveness against HLE relative to PPE ([3]; HLE vs PPE in vitro): about eighty
- Inhibition of HLE (in words) ([3]; listed as L-norvaline azolide): highly effective
- Emphysema ([4]; IT 1 umole inhibitor, no PPE): No
- Emphysema ([4]; IT 34 ug PPE + 1 umole inhibitor): No
- Prevention of emphysema (in words) ([4]; given simultaneously with PPE): prevented emphysema

SMILES: c1c[nH]cn1 [imidazole]
- thromboxane synthetase inhibition (in words) (thromboxane synthetease): inhibitor of thromboxane synthetease
